Results from patent US10829756B2, “Discovery of enzymes from the alpha-keto acid decarboxylase family” (Regents of the University of California, priority 2015, dated 2020).

Key:
[1] = tested on: Streptomyces sp. C GEO175 variant L376T_T240S, SEQ ID NO:19; assay: Steady-state kinetics of 2-ketoacid decarboxylase (ADH/NADH coupled); assay type: biochemical; details: relative to GEO 175, same conditions
Description: FIG. 6: Depicts results of kinetic characterization of GEO 175 and GEO 175 L376T_T240S. Kinetic constants were measured as described herein. The substrate 2-ketooctanoate carbon chain numbering referred to in the text is numbered in white. According to the molecular model of GEO 175, the double mutation L376T_T240S is predicted to recede the pocket by 1.4 Å and remove interactions between the binding pocket and carbon 8 of the ketoacid alkyl chain. […]
For the native KIVD and KIVD_VLV mutant, 2 ml overnight cultures of XL1B cells were transformed with pQE9 containing N-terminal his-tagged KIVD enzymes and grown in Terrific Broth (BP biomedical, Cat#3046-042) with 50 μg/mL of carbenicillin. […] Protein concentrations were determined using a Synergy H1 spectrophotometer (Biotek) by measuring absorbance at 280 nm using their calculated extinction coefficients with ExPASy ProtParam Tool.^33 All other buffers and salts were purchased from Fisher Scientific unless otherwise specified.
The kcat and KM values of selective KIVD mutants were measured for the substrates: C3, C5, isoC5, and C8. […] Activity was measured at 0.005 mM to 10 mM substrates. […]

[2] = tested on: E. coli strain (ATCC 98082 pZS_thrO, pZAlac_ilvA_LeuA, pZE12LeuA*BCDKA6_KIVD_wt); assay: Alcohol toxicity: growth (OD600) of the alcohol production strain over 7 hours; assay type: cell-based; details: 7-hour incubation
Description: Alcohol tolerance of the in vivo alcohol production strain was evaluated by supplementing the fermentation media with specified quantities of long chain alcohols, and measuring growth over 7 hours. Both the E. coli strain (ATCC 98082 pZS_thrO, pZAlac_ilvA_LeuA, pZE12LeuA*BCDKA6_KIVD_wt) and fermentation media (1×M9 metals+1× trace metal mix+0.5% yeast extract+2% glucose+antibiotics) and conditions are the same as described above (Fermentation procedure and analysis). Cells were grown in media without IPTG-induction to a starting OD600 ˜0.02 and then supplemented with either 1-petanol, 1-hexanol, 1-heptanol, or 1-octanol at specified concentrations of 10 mg/L, 50 mg/L, 250 mg/L, 500 mg/L, or 1000 mg/L. OD600 readings were taken hourly up to 7 hours.

[3] = tested on: GEO195, 2-ketoacid decarboxylase, SEQ ID NO:16; assay: Steady-state kinetics of 2-ketoacid decarboxylase (ADH/NADH coupled); assay type: biochemical; details: pH 7.5, 21° C.
Source text: (§1) FIG. 20: Depicts results of a structural alignment of GEOs and KIVD (GEO175=SEQ ID NO:2, GEO243=SEQ ID NO:5, GEO 250=SEQ ID NO:6, GEO 242=SEQ ID NO:7, GEO 245=SEQ ID NO:8, GEO 251=SEQ ID NO:9, GEO 247=SEQ ID NO:10, GEO 244=SEQ ID NO:11, GEO 246=SEQ ID NO:12, GEO 248=SEQ ID NO:13, GEO 179=SEQ ID NO:14, GEO 240=SEQ ID NO:15, GEO 195=SEQ ID NO:16, GEO 241=SEQ ID NO:17, GEO 249=SEQ ID NO:4, KIVD_VLV=SEQ ID NO:3). Active site residues are denoted with a black box under the residue letter.
(§2) For the native KIVD and KIVD_VLV mutant, 2 ml overnight cultures of XL1B cells were transformed with pQE9 containing N-terminal his-tagged KIVD enzymes and grown in Terrific Broth (BP biomedical, Cat#3046-042) with 50 μg/mL of carbenicillin. (Fisher scientific, Cat# BP2648-5) For the GEOs, 2 ml overnight cultures of BLR cells were transformed with pet29b+ plasmid containing N-terminal his-tagged GEOs, and grown in Terrific Broth with 50 μg/mL of kanamycin. (Fisher scientific, Cat# BP906-5) These cultures were diluted 1:1000 in 500 mL of Terrific Broth with 1 mM MgSO4, 1% glucose, and 50ug/mL of corresponding antibiotics, then grown at 37° C. for 24 hours. Cultures were pelleted down at 4700 rpm for 10 mins and resuspended in auto-induction media (LB broth, 1 mM MgSO4, 0.1 mM TPP, 1×NPS, and 1×5052) for induction at 18° C. for 34 hours. […] Protein concentrations were determined using a Synergy H1 spectrophotometer (Biotek) by measuring absorbance at 280 nm using their calculated extinction coefficients with ExPASy ProtParam Tool.^33 All other buffers and salts were purchased from Fisher Scientific unless otherwise specified.
(§3) The kcat and KM values of selective KIVD mutants were measured for the substrates: C3, C5, isoC5, and C8. […] Activity was measured at 0.005 mM to 10 mM substrates. […] Absorbance readings were taken every 1-minute at OD340 at 21° C. for 60 minutes using the Synergy H1. Kinetic parameters (kcat and KM) were determined by fitting initial velocity versus substrate concentration data to the Michaelis-Menten equation.

[4] = target: GEO179, 2-ketoacid decarboxylase, SEQ ID NO:14 (Klebsiella variicola, UniProt A0ACD7F8P2, H281L/S236A/T380V); assay: as above; assay type: biochemical; details: pH 7.5, 21° C.
Source text: as §1, §2, §3

[5] = 250 mg l^−1 alcohol supplemented, OD 1.9 without toxicity
[6] = 500 mg l^−1 alcohol supplemented
[7] = 1000 mg l^−1 alcohol supplemented

Chain of GEO179, 2-ketoacid decarboxylase, SEQ ID NO:14 (A0ACD7F8P2 entry or part of it H281L/S236A/T380V): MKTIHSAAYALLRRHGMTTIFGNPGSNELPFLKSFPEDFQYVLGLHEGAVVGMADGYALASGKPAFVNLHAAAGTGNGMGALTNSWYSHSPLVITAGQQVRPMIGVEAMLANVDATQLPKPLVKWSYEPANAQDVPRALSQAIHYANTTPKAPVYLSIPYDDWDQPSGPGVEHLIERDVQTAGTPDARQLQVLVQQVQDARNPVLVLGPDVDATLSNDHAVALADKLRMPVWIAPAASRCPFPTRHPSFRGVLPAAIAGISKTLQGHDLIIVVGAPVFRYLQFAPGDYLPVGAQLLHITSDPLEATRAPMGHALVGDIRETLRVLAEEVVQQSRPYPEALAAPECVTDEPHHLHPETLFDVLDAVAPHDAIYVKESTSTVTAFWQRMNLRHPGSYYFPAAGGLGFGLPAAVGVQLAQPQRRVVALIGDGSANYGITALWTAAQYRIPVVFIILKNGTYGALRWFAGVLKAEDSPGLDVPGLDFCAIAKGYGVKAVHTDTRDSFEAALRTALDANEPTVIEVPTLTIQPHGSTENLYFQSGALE

Structure (SMILES)	decrease in catalytic efficiency relative to GEO 175 [1]	final OD of E. coli cultures [2, 5]	final OD of E. coli cultures [2, 6]	final OD of E. coli cultures [2, 7]	further results
CC(=O)C(=O)O [C3]	less than 2 fold	–	–	–	–
CCCCCCCCO [C8 alcohol, 1-octanol]	–	~1.0	No significant growth	–	–
CCCCCCCO [heptanol, 1-heptanol]	–	approximately 1.6	0.1	no significant growth	–
CCCCCCO [hexanol, 1-hexanol]	–	approximately 1.6	1.0	0.2	–
CC(C)C(=O)C(=O)O [iso C5, 2-ketoisovaleric acid]	less than 2 fold	–	–	–	Km [3]: 9.1 ± 0.3 mM; kcat [3]: 0.072 ± 0.001 s⁻¹; kcat [4]: 0.39 ± 0.01 s⁻¹
CCCCCO [pentanol, 1-pentanol]	–	–	–	1.5	–
